From paper PMC11951083, “Highly Specific Miniaturized Fluorescent Monoacylglycerol Lipase Probes Enable Translational Research” (Journal of the American Chemical Society, 2025)

Key:
[1] = target: T1, COX2(h) (Homo sapiens, UniProt P35354); assay: COX2(h); conditions: read-out: Inhibition COX2(h)
T1 sequence (P35354 18-604): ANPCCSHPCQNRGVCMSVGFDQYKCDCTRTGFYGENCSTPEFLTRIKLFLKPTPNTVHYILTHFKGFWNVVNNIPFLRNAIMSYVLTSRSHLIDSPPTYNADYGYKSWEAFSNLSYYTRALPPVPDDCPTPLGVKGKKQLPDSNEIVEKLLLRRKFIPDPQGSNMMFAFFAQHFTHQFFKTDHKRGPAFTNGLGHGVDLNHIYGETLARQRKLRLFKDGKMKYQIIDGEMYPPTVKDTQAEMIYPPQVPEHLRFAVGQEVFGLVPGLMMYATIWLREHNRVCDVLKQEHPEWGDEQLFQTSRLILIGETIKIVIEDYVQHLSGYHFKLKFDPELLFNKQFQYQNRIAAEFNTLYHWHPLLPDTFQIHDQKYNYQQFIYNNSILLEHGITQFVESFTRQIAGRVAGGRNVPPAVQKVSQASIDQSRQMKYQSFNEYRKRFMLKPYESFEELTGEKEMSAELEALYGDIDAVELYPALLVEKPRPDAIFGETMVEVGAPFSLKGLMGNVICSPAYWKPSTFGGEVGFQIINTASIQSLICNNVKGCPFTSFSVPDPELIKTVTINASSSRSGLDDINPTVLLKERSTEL

[2] = target: T2, AT1 (h) (Homo sapiens, UniProt P30556); assay: AT1 (h) (antagonist radioligand); conditions: read-out: Inhibition AT1 (h) (antagonist radioligand)
T2 sequence (P30556 1-359): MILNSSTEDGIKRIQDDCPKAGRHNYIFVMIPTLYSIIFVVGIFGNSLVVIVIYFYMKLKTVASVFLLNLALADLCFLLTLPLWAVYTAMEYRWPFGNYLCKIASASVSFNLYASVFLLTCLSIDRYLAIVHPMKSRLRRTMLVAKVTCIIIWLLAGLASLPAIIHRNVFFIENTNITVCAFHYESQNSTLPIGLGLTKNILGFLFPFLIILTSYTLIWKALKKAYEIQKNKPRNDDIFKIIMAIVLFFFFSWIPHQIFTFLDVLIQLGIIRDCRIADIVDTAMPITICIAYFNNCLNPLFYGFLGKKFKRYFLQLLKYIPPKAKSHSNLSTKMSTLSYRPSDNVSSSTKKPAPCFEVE

[3] = target: glycine (strychnine-insensitive) (Rattus norvegicus, UniProt P35439); assay: glycine (strychnine-insensitive) (antagonist radioligand); conditions: read-out: Inhibition glycine (strychnine-insensitive) (antagonist radioligand)
[4] = target: N neuronal alpha4beta2 (h) (Homo sapiens, UniProt P17787+P43681); assay: N neuronal alpha4beta2 (h) (agonist radioligand); conditions: read-out: Inhibition N neuronal alpha4beta2 (h) (agonist radioligand)
[5] = target: beta1 (h) (Homo sapiens, UniProt P08588); assay: beta1 (h) (agonist radioligand); conditions: read-out: Inhibition beta1 (h) (agonist radioligand)
[6] = target: T3, CCK1 (CCKA) (h) (Homo sapiens, UniProt P32238); assay: CCK1 (CCKA) (h) (agonist radioligand); conditions: read-out: Inhibition CCK1 (CCKA) (h) (agonist radioligand)
T3 sequence (P32238 1-428): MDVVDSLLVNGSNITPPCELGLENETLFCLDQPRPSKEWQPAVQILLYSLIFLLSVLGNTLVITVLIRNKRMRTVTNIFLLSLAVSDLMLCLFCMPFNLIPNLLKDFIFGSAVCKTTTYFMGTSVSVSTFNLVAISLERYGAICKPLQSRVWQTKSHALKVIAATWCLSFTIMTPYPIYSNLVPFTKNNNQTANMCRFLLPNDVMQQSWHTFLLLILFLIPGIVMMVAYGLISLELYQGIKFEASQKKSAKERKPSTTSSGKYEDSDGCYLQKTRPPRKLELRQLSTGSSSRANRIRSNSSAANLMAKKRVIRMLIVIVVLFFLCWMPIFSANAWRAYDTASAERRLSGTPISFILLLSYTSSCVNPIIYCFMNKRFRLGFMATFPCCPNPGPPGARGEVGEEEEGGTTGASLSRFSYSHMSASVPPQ

[7] = target: T4, 5-HT3 (h) (Homo sapiens, UniProt P46098); assay: 5-HT3 (h) (antagonist radioligand); conditions: read-out: Inhibition 5-HT3 (h) (antagonist radioligand)
T4 sequence (P46098 24-478): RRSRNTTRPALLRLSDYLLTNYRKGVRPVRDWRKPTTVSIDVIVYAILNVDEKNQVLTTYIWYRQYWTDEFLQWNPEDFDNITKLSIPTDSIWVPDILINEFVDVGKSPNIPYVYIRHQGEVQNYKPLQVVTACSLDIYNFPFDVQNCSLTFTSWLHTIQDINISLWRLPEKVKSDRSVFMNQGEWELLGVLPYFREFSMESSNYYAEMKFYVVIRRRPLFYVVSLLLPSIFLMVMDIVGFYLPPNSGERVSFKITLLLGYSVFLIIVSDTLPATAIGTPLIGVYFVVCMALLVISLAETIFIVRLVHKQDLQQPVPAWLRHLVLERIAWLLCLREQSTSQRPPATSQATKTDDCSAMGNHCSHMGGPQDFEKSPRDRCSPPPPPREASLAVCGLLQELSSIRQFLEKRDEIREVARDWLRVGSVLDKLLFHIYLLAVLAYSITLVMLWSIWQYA

[8] = target: T5, M2 (h) (Homo sapiens, UniProt P08172); assay: M2 (h) (antagonist radioligand); conditions: read-out: Inhibition M2 (h) (antagonist radioligand)
T5 sequence (P08172 1-466): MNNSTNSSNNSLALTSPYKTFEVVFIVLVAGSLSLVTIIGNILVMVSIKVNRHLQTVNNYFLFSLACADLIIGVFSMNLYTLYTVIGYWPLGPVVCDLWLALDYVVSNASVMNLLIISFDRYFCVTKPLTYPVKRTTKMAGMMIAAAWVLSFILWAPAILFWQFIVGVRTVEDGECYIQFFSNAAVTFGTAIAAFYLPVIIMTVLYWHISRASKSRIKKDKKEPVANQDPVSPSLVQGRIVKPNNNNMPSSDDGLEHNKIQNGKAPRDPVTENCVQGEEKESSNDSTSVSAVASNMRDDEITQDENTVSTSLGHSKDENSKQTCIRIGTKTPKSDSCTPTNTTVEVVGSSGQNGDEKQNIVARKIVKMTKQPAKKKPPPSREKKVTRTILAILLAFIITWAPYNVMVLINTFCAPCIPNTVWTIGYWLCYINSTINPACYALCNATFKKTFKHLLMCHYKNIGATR

glycine (strychnine-insensitive), sequence (P35439 394-800): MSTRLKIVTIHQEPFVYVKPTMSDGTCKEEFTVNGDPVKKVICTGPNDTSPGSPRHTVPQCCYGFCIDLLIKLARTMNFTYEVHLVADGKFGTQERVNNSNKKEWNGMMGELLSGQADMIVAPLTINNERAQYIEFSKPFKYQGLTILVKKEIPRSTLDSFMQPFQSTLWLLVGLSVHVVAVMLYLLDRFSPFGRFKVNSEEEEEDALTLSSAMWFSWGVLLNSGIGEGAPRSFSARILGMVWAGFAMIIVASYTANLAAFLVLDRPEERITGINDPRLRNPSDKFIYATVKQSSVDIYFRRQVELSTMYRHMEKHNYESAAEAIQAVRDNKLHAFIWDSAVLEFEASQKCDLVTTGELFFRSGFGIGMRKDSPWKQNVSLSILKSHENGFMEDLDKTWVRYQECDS
N neuronal alpha4beta2 (h), sequence (P43681 29-627 limits assumed): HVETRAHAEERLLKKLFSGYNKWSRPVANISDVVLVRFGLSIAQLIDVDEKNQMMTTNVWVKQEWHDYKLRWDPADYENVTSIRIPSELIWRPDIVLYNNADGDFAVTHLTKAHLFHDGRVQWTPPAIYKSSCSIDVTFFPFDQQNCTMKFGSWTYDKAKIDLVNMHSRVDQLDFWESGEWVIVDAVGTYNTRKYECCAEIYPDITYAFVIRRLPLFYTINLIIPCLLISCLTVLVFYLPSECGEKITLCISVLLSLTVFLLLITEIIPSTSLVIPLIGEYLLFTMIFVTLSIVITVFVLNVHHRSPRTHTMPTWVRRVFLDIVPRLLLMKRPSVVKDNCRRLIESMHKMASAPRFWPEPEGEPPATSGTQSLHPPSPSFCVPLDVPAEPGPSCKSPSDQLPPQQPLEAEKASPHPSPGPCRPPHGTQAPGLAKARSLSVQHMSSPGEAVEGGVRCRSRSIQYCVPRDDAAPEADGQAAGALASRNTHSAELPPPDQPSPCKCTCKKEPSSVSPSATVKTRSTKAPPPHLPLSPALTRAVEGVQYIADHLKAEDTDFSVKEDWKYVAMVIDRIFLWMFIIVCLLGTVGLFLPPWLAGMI
N neuronal alpha4beta2 (h), sequence (P17787 26-502): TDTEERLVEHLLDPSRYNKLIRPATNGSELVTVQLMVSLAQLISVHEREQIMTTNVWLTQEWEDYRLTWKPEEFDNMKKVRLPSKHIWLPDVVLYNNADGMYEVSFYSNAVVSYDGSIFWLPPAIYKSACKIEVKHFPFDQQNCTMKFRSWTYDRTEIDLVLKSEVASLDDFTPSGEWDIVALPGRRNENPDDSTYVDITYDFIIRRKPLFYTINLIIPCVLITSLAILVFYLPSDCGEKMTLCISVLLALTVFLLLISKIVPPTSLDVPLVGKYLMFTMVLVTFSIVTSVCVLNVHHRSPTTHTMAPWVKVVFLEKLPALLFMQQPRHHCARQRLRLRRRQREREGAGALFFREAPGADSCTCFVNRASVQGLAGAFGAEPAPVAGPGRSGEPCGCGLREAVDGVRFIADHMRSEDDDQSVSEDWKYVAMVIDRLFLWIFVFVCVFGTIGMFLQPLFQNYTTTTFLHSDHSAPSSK
beta1 (h), sequence (P08588 whole entry): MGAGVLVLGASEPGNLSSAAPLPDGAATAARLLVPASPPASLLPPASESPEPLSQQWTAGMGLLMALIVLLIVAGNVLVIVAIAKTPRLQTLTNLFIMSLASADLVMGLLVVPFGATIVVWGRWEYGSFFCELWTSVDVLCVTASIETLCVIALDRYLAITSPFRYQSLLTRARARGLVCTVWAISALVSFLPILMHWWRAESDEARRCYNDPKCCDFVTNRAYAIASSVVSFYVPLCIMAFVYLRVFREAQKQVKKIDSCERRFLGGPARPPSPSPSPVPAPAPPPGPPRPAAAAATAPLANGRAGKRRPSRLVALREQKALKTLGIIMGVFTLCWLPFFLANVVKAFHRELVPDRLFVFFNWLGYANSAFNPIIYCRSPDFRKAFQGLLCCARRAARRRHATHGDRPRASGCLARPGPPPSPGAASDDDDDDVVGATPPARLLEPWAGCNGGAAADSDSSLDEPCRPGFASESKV

| SMILES | inhibition at 10 µM [1] | inhibition at 10 µM [2] | inhibition at 10 µM [3] | inhibition at 10 µM [4] | inhibition at 10 µM [5] | inhibition at 10 µM [6] | inhibition at 10 µM [7] | inhibition at 10 µM [8] |
| --- | --- | --- | --- | --- | --- | --- | --- | --- |
| O=C(OC(C(F)(F)F)C(F)(F)F)N1CC2(CC(CC3=C4C=CC=[N+]4[B-](F)(F)n4cccc43)C2)C1 [Compound 2] | 31.9% | -1.2% | 6.5% | -1.7% | -1.7% | -8.8% | -5.6% | 22.2% |
| O=C1CO[C@H]2CCN(C(=O)N3CC4(CC(CC5=C6C=CC(c7ccc[nH]7)=[N+]6[B-](F)(F)n6cccc65)C4)C3)C[C@H]2N1 [Compound 4a] | 48.9% | -12.5% | 3.1% | -0.6% | -1.2% | -22.1% | 1.1% | -4.9% |
| O=C(O[C@H](CO)C(F)(F)F)N1CC2(CC(CC3=C4C=CC=[N+]4[B-](F)(F)n4cccc43)C2)C1 [Compound 1] | 45.5% | -4.3% | -6.7% | -18.3% | -3.3% | -3.8% | 7.4% | 35.1% |
| O=C(OC(C(F)(F)F)C(F)(F)F)N1CC2(CC(CC3=C4C=CC(c5ccc[nH]5)=[N+]4[B-](F)(F)n4cccc43)C2)C1 [Compound 2a] | 49.5% | 2.5% | -2% | 4.2% | -3.3% | 11.9% | 4.7% | -13.1% |
| O=C(N1CC2(CC(CC3=C4C=CC=[N+]4[B-](F)(F)n4cccc43)C2)C1)N1CC2(CC(n3cnc(C4CC4)n3)C2)C1 [Compound 5] | 23.8% | 11.1% | -20.3% | -16.6% | 0.6% | -24.7% | 1.4% | 33.2% |
